The term viability denotes a per cent measure of how many cells are alive, often set against a control. As a reminder, the IC50 is the midpoint of a concentration-inhibition curve.

The source of these data is patent US5153352A, “Process for preparation of intermediates of carbocyclic nucleoside analogs” (priority 1990, dated 1992).

Values after ≈ are worked out from the molar mass of the structure shown. Values joined by “and” are separate entries in the source; they are usually repeats but may differ in a detail not shown here. Identical values can stand only once. Counter-ions that a name gives are not always drawn.

In series [1] the test system is Vero cells. Nature of the series: drug cytotoxicity in Vero cells (CPE-inhibition assay). The conditions noted are these: Vero.
Assay in series [2]: as above
The settings on record: monkey, vero cells, MTC (minimum drug concentration causing any cytotoxicity), Vero.

In series [3] the test system is Herpes simplex type 1 (HSV-1) strain E-377. Put plainly: CPE-inhibition assay, HSV-1 strain E-377 in Vero cells. The conditions noted are these: for TI (Therapeutic Index, MTC/ID50) / VR (Virus Rating): HSV-1 (E-377), Vero; for EC50: Human alphaherpesvirus 1, Vero, read-out: ID50 (minimum drug concentration that inhibited the CPE by 50%), HSV-1 (E-377), Vero; for VR (Virus Rating): >1.0 definite, 0.5-0.9 marginal to moderate, <0.5 no significant activity.

The test system of series [4] is Herpes simplex type 2 (HSV-2) strain MS. Nature of the series: CPE-inhibition assay, HSV-2 strain MS in Vero cells. The conditions noted are these: for TI (Therapeutic Index, MTC/ID50) / VR (Virus Rating): HSV-2 (MS), Vero; for EC50: Human alphaherpesvirus 2, Vero, read-out: ID50 (minimum drug concentration that inhibited the CPE by 50%), HSV-2 (MS), Vero; for VR (Virus Rating): >1.0 definite, 0.5-0.9 marginal to moderate, <0.5 no significant activity.

Series [5] is described as follows: cytotoxicity in ATH8 cells (method of Mitsuya and Broder). The conditions noted are these: human, HIV-1 experiment. In kind it is cell-based. From the text:
The method of Mitsuya and Broder (AIDS: Modern Concepts and Therapeutic Challenges; Broder, S. ED.; Marcel Dekker, Inc.; New York, 1987; Chapter 18) was used to determine the in vitro anti-HIV-1 and anti-HIV-2 activity in ATH8 cells of some compounds of the invention. […]

In series [6] the test system is Human Immunodeficiency Virus (HIV-1). Put plainly: anti-HIV-1 protection of ATH8 cells (method of Mitsuya and Broder). Type of series: cell-based. The conditions noted are these: Human immunodeficiency virus 1, ATH-8, HIV-1, ATH8 cells, read-out: Protective Effect. The source says:
The method of Mitsuya and Broder (AIDS: Modern Concepts and Therapeutic Challenges; Broder, S. ED.; Marcel Dekker, Inc.; New York, 1987; Chapter 18) was used to determine the in vitro anti-HIV-1 and anti-HIV-2 activity in ATH8 cells of some compounds of the invention. The results of the test are expressed as the percentage of ATH8 cells that were protected from the cytopathogenic effects of HIV at various concentrations of the compound of the invention.

Series [7] is described as follows: MTT cytotoxicity assay in MRC5 cells. In kind it is cell-based. The conditions noted are these: human. Here is the method: (§1) Human diploid embryonic lung (MRC5) cells were grown in 35 mm wells of 6-well tissue culture plates. Subconfluent cell monolayers were rinsed with phosphate buffered saline (PBS) and were exposed to 0.5 ml/well of HCMV (strain AD169) suspension for 1.5 hours at 37° C. The virus suspension was diluted in MEM+2% fetal bovine serum (FBS) to yield a multiplicity of infection (MOI) of approximately 0.1 plaque forming units (PFU)/cell. Following the virus adsorption period, the inocula were removed and infected cell layers were rinsed with PBS. Aliquots (2.0 ml) of each test drug concentration (dissolved in MEM supplemented with 2% FBS) were dispensed into triplicate cell cultures: two virus infected cultures and one uninfected cytotoxicity control culture (exposed to medium without virus for 1.5 hours). Untreated virus infected control cultures and untreated, uninfected cell control cultures were fed with medium alone.
(§2) All cell culture fluids were replaced with fresh drug and medium 48 hours postinfection (p.i.).
Drug cytotoxicity was determined quantitatively by a method based on the reduction of the tetrazolium salt, 3-(4,5-dimethyl-thiazol-2-yl)-2,5-diphenyl tetrazolium bromide (MTT) by mitochondrial enzymes of viable host cells to MTT formazan (T. Mosmann, 1983). Drug cytotoxicity controls and cell controls were treated with MTT (dissolved in culture medium) followed by 20% SDS (in 0.02 N HCl) to dissolve the crystals of MTT formazan. The blue color of the MTT formazan was measured spectrophotometrically at 570 nm. Drug cytotoxicity was determined by comparing the absorbance (O.D.) of each drug cytotoxicity control with the mean O.D. of the cell control cultures and expressed as percent of control.
Background: Formazan colour is commonly taken as a measure of viable cells.

Series [8] has as its system HCT8: Adenocarcinoma, ileocecal. Put plainly: cytotoxic activity against cultured tumor cells, HCT-8. In kind it is cell-based. The conditions noted are these: Homo sapiens, 72 h; HCT-8, 3 days, MTT.
In series [9] the test system is A549: Lung carcinoma. Nature of the series: cytotoxic activity against cultured tumor cells, A549. Type of series: cell-based. The conditions noted are these: Homo sapiens, 72 h; A549, 3 days, MTT.
Series [10] has as its system P388D1: Lymphocytic Leukemia. Nature of the series: cytotoxic activity against cultured tumor cells, P388-D1. In kind it is cell-based. The conditions noted are these: Mus musculus, P388D1, 72 h; P388-D1, 3 days, MTT.
In series [11] the test system is Human Cytomegalovirus (HCMV). Put plainly: HCMV virus yield reduction assay in MRC5 cells. Type of series: cell-based, Human cytomegalovirus (strain AD169). As for the experimental part: as §1, §2
On Day 6 p.i., the cell layers were examined microscopically for cytopathogenic effect (CPE) and drug cytotoxicity. The test and virus control cultures were then harvested by subjecting the cell layers to one cycle of freeze-thawing.
The harvested test and virus control samples were thawed and the infectious virus yield was determined by plaque assay in MRC5 cells grown in 12-well cluster plates. Inhibition of HCMV replication by each test compound was determined by comparing the progeny virus yields in the drug-treated cultures with the progeny virus yield in the untreated, virus infected control cultures.

As to `Nc1nc(Cl)c2ncn(C3CC(CO)C3CO)c2n1` (centres unmarked) [Example 1H, 3-(2'-Amino-6'-chloro-9'H-purin-9'-yl)-1,2-bis(hydroxymethyl)cyclobutane], the “MTC (minimum drug concentration causing any cytotoxicity)” value in series [1] (HSV-1 (E-377) experiment) and in series [1] (HSV-2 (MS) experiment) was 320 µg/mL throughout. Further, the MCC in series [2] (HSV-1 (E-377) experiment) and in [2] (HSV-2 (MS) experiment) was 320 µg/mL throughout. For the same compound, the “TI (Therapeutic Index, MTC/ID50)” value is 3.9 and 3.6 in series [3] (listed as 1.5H); 1.8 and 1.5 in series [4] (listed as 1.5H). In addition, the EC50 came to 83 µg/mL (≈ 293 µM) in [3] and 179 µg/mL (≈ 631 µM) in [4].

For the compound `Nc1ccn(C2CC(CO)C2CO)c(=O)n1` (centres unmarked) [Example 3, 1-(2',3'-Bis(hydroxymethyl)cyclobutyl)cytosine], the MCC in [2] (HSV-1 (E-377) experiment) worked out at 320 µg/mL. The MCC in [2] (HSV-2 (MS) experiment) stood at 320 µg/mL. Besides, in series [3], the “TI (Therapeutic Index, MTC/ID50)” value is 31.8; the “VR (Virus Rating)” value is recorded as 3.6; the EC50 is 10.1 µg/mL (≈ 44.7 µM). Besides, in series [4], the “TI (Therapeutic Index, MTC/ID50)” value is reported as 6.34; the “VR (Virus Rating)” value is 2.0; the EC50 was determined as 50.5 µg/mL (≈ 224 µM).

For `Nc1nc(N)c2ncn(C3CC(CO)C3CO)c2n1` (centres unmarked) [Example 6, 3-(2',6'-Diamino 9'H-purin-9'-yl)-1,2-bis(hydroxymethyl)cyclobutane], the MCC in series [2] (HSV-1 (E-377) experiment) and in [2] (HSV-2 (MS) experiment) was 320 µg/mL each time. This compound came in with a cytotoxicity at 1 µM in series [5] (1 uM) of 0%. Also, the cytotoxicity at 10 µM in [5] (10 uM) was 4%. Also, the cytotoxicity at 100 µM in series [5] (100 uM) is 32%. The cytotoxicity at 500 µM in series [5] (500 uM) is 38%. Moreover, the “TI (Therapeutic Index, MTC/ID50)” value in series [3] turned out to be 10.1; in series [4] it was 4.5. Besides, the results for the “VR (Virus Rating)” value in series [3] and in [4] were 2.4 and 1.6, respectively. The EC50 in series [3] is 31.7 µg/mL (≈ 120 µM); in series [4] it was 71.8 µg/mL (≈ 272 µM). Moreover, the inhibition at 1 µM in series [6] (1 uM) turned out to be 21%. Further, in [6] (10 uM), the inhibition at 10 µM is 48%. Moreover, the inhibition at 100 µM in series [6] (100 uM) was 46%. Besides, the inhibition at 500 µM in series [6] (500 uM) is 57%.

In [2] (HSV-1 (E-377) experiment), `Nc1ncc2ncn(C3CC(CO)C3CO)c2n1` (centres unmarked) [Example 7, 3-(2'-Amino-9'H-purin-9'-yl)-1,2-bis(hydroxymethyl)cyclobutane] had an MCC of 320 µg/mL. Further, in [3], the “TI (Therapeutic Index, MTC/ID50)” value came out at 1.2; the “VR (Virus Rating)” value was 0.55; the EC50 amounted to 271 µg/mL (≈ 1090 µM).

Regarding `OCC1CC(n2cnc3c(Cl)ncnc32)C1` (centres unmarked) [Example 8E, 3-(6'-chloro-9'H-purin-9'-yl)cyclobutanemethanol], the results for the MCC in series [2] (HSV-1 (E-377) experiment) and in series [2] (HSV-2 (MS) experiment) were 320 µg/mL and 100 µg/mL, respectively. Also, the “VR (Virus Rating)” value in [3] amounted to 0.9; in series [4], 1.35. In [4], the “TI (Therapeutic Index, MTC/ID50)” value is reported as 1.8. In [4], the EC50 came out at 54.7 µg/mL (≈ 229 µM).

Compound `CC(=O)OCC1CC(n2cnc3c(=O)[nH]c(N)nc32)C1COC(C)=O` (centres unmarked) [Example 20, 9-(2,'3,'-Bis(acetoxymethyl)cyclobutyl)guanine] returned an MCC in series [2] (HSV-1 (E-377) experiment) of 100 µg/mL. In [2] (HSV-2 (MS) experiment), this compound gave an MCC of 100 µg/mL. Moreover, in [3], the “TI (Therapeutic Index, MTC/ID50)” value is on record as 8.2; the “VR (Virus Rating)” value came out at 2.2; the EC50 is 12.1 µg/mL (≈ 34.6 µM). Further, in [4], the “TI (Therapeutic Index, MTC/ID50)” value was 6.4; the “VR (Virus Rating)” value is reported as 1.9; the EC50 came out at 15.7 µg/mL (≈ 44.9 µM).

As for `NCC1CC(n2cnc3c(Cl)ncnc32)C1` (centres unmarked) [Example 21, 3-(6'-Chloro-9'H-purin-9'-yl)-aminomethylcyclobutane hydrochloride], the MCC in series [2] (HSV-1 (E-377) experiment) and in [2] (HSV-2 (MS) experiment) was 320 µg/mL each time. Besides, the “TI (Therapeutic Index, MTC/ID50)” value in [3] is 3.6; in [4] it was 4.3. The “VR (Virus Rating)” value is listed as 1.0 in [3] and 1.2 in series [4]. The EC50 in [3] was determined as 88 µg/mL; in series [4] it was 75 µg/mL.

`Nc1nc2c(nc(Br)n2C2CC(CO)C2CO)c(=O)[nH]1` (centres unmarked) [Example 23]: the MCC in [2] (HSV-1 (E-377) experiment) is more than 320 µg/mL. In series [2] (HSV-2 (MS) experiment), this compound had an MCC of more than 320 µg/mL. Moreover, in series [3], the “TI (Therapeutic Index, MTC/ID50)” value is on record as 3.2; the “VR (Virus Rating)” value came out at 1.7; the EC50 is 100 µg/mL (≈ 291 µM). For the same compound, the “VR (Virus Rating)” value in [4] amounted to 0.7.

For the compound `OCC1CC(n2ccc3c(Cl)ncnc32)C1CO` (centres unmarked) [Example 67B, 4-Chloro-7-(2',3'-bis(hydroxymethyl)cyclobutyl)-7H-pyrrolo[2,3-d]pyrimidine], the viability in series [7] (10 ug/ml) was 86%; in [7] (32 ug/ml), 68%. Besides, the 50% inhibitory concentration (IC50) in series [8] is 0.63 µg/mL (≈ 2.35 µM); in [9] it was 18.8 µg/mL (≈ 70.2 µM); in series [10], 4.9 µg/mL (≈ 18.3 µM). For the same compound, the figures for the HCMV yield in series [11] (3.2 ug/ml), in series [11] (10 ug/ml) and in series [11] (32 ug/ml) were 4.9 log10 PFU/ml, 4.0 log10 PFU/ml and 3.1 log10 PFU/ml, respectively. Further, the log reduction at 3.2 µg/mL in series [11] (Human betaherpesvirus 5, 144 h, 3.2 ug/ml) was found to be 0.4. This compound also gave a log reduction at 10 µg/mL in [11] (Human betaherpesvirus 5, 144 h, 10 ug/ml) of 1.3. This compound also gave a log reduction at 32 µg/mL in series [11] (Human betaherpesvirus 5, 144 h, 32 ug/ml) of 2.2.

As to `OCC1CC(n2cc(Br)c3c(Cl)ncnc32)C1CO` (centres unmarked) [Example 67C], the MCC in [2] (HSV-1 (E-377) experiment) and in series [2] (HSV-2 (MS) experiment) was 32 µg/mL throughout. Further, the figures for the “TI (Therapeutic Index, MTC/ID50)” value in series [3] and in [4] were 2.9 and 2.1, respectively. The “VR (Virus Rating)” value in series [3] amounted to 1.2; in [4], 0.9. For the same compound, the EC50 in series [3] was 11.1 µg/mL (≈ 32 µM); in [4], 14.9 µg/mL (≈ 43 µM). Besides, the results for the IC50 in series [8], in [9] and in series [10] were 4.3 µg/mL (≈ 12.4 µM), 18.4 µg/mL (≈ 53.1 µM) and 16.4 µg/mL (≈ 47.3 µM), respectively.

`Nc1ncnc2c1c(Br)cn2C1CC(CO)C1CO` (centres unmarked) [Example 67F, 4-Amino-9-bromo-7-(2',3'-bis(hydroxymethyl)cyclobutyl)-7H-pyrrolo[2,3-d]pyrimidine]: the IC50 amounted to 5.9 µg/mL (≈ 18 µM) in [8], 3.1 µg/mL (≈ 9.47 µM) in series [9] and 5.2 µg/mL (≈ 15.9 µM) in series [10].
